Data as given in patent publication US6998129B2, “Cosmetic or dermatological composition comprising an association between an elastase inhibitor compound of the N-acylaminoamide family and at least one anti-inflammatory compound” (L'Oreal, priority 2001, dated 2006).

Legend:
[1] = tested on: surviving human skins treated by a human leukocyte elastase (ELH); assay: ex vivo protection of elastic fibres in human skin fragments kept surviving 10 days with ELH (Example 5); type: cell-based; conditions: 0.5 μg ELH per ml; 5 μl of 0.2% solution in ethanol every two days; 10 days at 37° C.; three donors; control 7.4%, ELH alone 5.1%
Procedure: (§1) The ex vivo activity of example 2 compound has been evaluated on surviving human skins treated by a human leukocyte elastase (ELH).
(§2) The test is performed the following way.
Fragments of normal human skin from three different donors are deposited in inserts positioned in culture wells. Culture medium added with antibiotics is added in the bottom of the wells. A pass is performed through slow diffusion between the two compartments via a porous membrane (pore size: 12 μm).
(§3) The culture medium is renewed every three days.
On the skin fragments, optionally 0.5 μg ELH per ml culture medium are added.
5 μl of the compound to be tested are also added every two days, previously put in solution at 0.2% by weight in ethanol.
The skins are kept surviving for 10 days at 37° C.
The elastic fibres are colored in blue using catechin (+) and quantified morphometrically using a computer assisted image analysis, The average derma surface percentage occupied by elastic fibres is evaluated this way.

[2] = tested on: surviving human skins irradiated by UVA (8 J/cm^2); assay: protection of elastic fibres and collagen in surviving human skins irradiated by UVA (Example 6); type: cell-based; conditions: UVA 8 J/cm^2 once, 5 μl of 0.2% solution every two days, 7 days at 37° C.
Procedure: The activity of the example 2 compound has been evaluated on surviving human skins irradiated by UVA (8 J/cm^2).
as §2
Fragments of normal human skin from four different donors are deposited in inserts positioned in culture wells. Culture medium added with antibiotics is added in the bottom of the wells. A pass is performed through slow diffusion between the two compartments via a porous membrane (pore size: 12 μm).
as §3
On the skin fragments, every two days, 5 μl of the compound to be tested are added, previously put in solution at 0.2% wt in ethanol.
The skins are kept surviving for 7 days at 37° C.
The skins are radiated once at 8 J/cm^2 (RMX-3W Vilbert-Lourmat lamp).
The elastic fibres are colored in blue using catechin (+) and quantified morphometrically using a computer assisted image analysis. The average derma surface percentage occupied by elastic fibres is evaluated this way.

[3] = tested on: surviving human skins treated by a human leukocyte elastase (ELH); assay: ex vivo protection of elastic fibres in fresh human skin cuts treated with ELH for 2 hours (Example 4); type: cell-based; conditions: 20° C.
Procedure: as §1, §2
Fresh human skin cuts from two different donors are treated for 2 hours, at 20° C., by 20 μl of a buffer solution (pH 7.4) optionally comprising 10 μg/ml ELH and optionally 0.1% of the compound to be tested, optionally previously put in solution in ethanol.
The elastic fibres are colored in blue using catechin (+) and quantified morphometrically using a computer assisted image analysis. The average derma surface percentage occupied by elastic fibres Is evaluated this way.

[4] = biological target: T1, human leukocyte elastase (ELH) (Homo sapiens, UniProt P08246); assay: in vitro anti-elastasic activity on Me-OSAAPV-p-NA substrate; type: biochemical; conditions: even in a small amount
T1 sequence (P08246 30-267): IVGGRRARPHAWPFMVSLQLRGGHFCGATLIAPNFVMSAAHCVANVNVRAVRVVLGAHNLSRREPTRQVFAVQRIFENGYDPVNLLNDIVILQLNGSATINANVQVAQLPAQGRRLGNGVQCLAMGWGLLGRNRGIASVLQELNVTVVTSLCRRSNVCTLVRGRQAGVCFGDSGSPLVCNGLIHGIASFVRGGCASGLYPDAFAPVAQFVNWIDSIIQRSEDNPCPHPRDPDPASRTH
Procedure: The anti-elastasic activity of compounds according to the invention is determined in vitro compared to the human leukocyte elastase (ELH).
The test is performed in the following way:
A Me-OSAAPV-p-NA (methyl-O-succinate alanine alanine proline valine-p-nitroaniline) substrate, onto which ELH (40 milli-units per ml) and 0.1% of the compound to be tested are applied, is left for incubating at 37° C. for 60 minutes.
Thereafter, the % inhibition of the control elastase activity is determined by spectrophotometry.

## CC(=O)N(c1cccc(C(F)(F)F)c1)C(C(=O)NCC(=O)O)C(C)C (stereo not drawn) [Example 2, {2-[acetyl-(3-trifluoromethyl-phenyl)-amino]-3-méthyl-butyrylamino}acetic acid]
[1]
  % Surface occupied by elastic fibres: 7.1%
[2]; untreated 6.75%, UVA alone 3.9%
  Elastic fibres morphometric analysis (superficial derma): 6.8%
[2]; untreated 87%, UVA alone 81%
  Collagen morphometric analysis (superficial derma): 92%
[3]; Skin 1, 10 μg/ml ELH + 0.1% compound, control 12.7%, ELH alone 4.85%
  % Surface occupied by elastic fibres: 13.95%
[3]; Skin 2, 10 μg/ml ELH + 0.1% compound, control 15.25%, ELH alone 6.85%
  % Surface occupied by elastic fibres: 11.85%
[4]
  inhibition of the elastase activity (in words): strong inhibition
